What was measured:
[1] = system: S6 phosphorylation and AKT (T308) phosphorylation; assay: Immunoblots of S6 and AKT phosphorylation in KOPT-K1 cells; type: cell-based, human; details: 25 nM, 48 hours
Description: (§1) Immunoblots. Lysates were made using Laemli lysis buffer. 30 ug of protein was loaded onto SDS-PAGE gels then transferred onto Immobilon-FL Transfer Membranes (Millipore IPFL00010). The antibodies used were α-Tubulin (Sigma T5168), β-actin (Sigma A5316), Myc (Santa Cruz Biotechnology sc-40), p-Akt 308 (Cell Signaling 9275), Akt (Cell Signaling 9272), S6 (Cell Signaling 2317), and p-S6 (Cell Signaling 2215), Notch1 (Cell signaling 3608), Myb (Santa Cruz Biotechnology, sc-517), CDK6 (Cell Signaling 3136), EZH2 (Cell Signaling 5246), Mdm2 (Santa Cruz Biotechnology, sc-965), Bcl2 (Santa Cruz Biotechnology, sc-509), Run×1 (Cell Signaling 4336), and GAPDH (Cell Signaling 5174).
(§2) E) Simplified diagram of rapamycin and silvestrol mechanism of action.

[2] = system: cap-dependent translation; assay: Dual-luciferase reporter assay (capped vs IRES-driven luciferase); type: cell-based; details: renilla and firefly luciferase either capped or under control of an IRES element
Description: Luciferase assays. Four tandem repeats of the (CGG)4 12-mer motif (GQs) or random sequence matched for length and GC content (random) were cloned into the 5′UTR of Renilla luciferase plasmid pGL4.73. Empty firefly luciferase plasmid pGL4.13 or HCV-IRES firefly were used as internal controls. Luciferase assays were performed using Dual-Luciferase Reporter Assay System (Promega E1960) following the manufacturer's instructions. GQs sequence: […]

JURKAT and KOPT-K1 cells = assay: Immunoblots of target proteins in human T-ALL lines; type: cell-based; details: 25 nM, immunoblot
Description: as §1
Given the complexity of the RF data analysis, it was important to directly confirm loss of expression for at least some of these proteins. Briefly, immunoblots on JURKAT and KOPT-K1 cells treated with silvestrol (25 nM) and loaded with equal amounts of total protein confirmed dramatic loss of MYC, NOTCH1, BCL2, and CCND3 proteins (FIG. 6A). The effect on MYC was especially striking, it was dose dependent (FIG. 6B), lasted for 48 h, and was also achieved in xenografts in vivo (Figure S6A-B). […] As expected, ACTIN, TUBULIN, and GAPDH were not affected (FIG. 6A). […] The small and significant increase in MYC mRNA levels might be consistent with prior reports of a MYC auto-regulatory mechanism (Penn et al., 1990a; Penn et al., 1990b) (FIG. 6C).
FIG. 6 depicts validation of selected silvestrol targets. A) Immunoblots of lysates from human T-ALL lines treated with silvestrol (25 nM) and probed as indicated. B) Immunoblots of lysates from JURKAT cells treated with escalating doses of silvestrol and probed as indicated. C) mRNA levels for the corresponding genes treated with vehicle (DMSO, black) or silvestrol (red, 25 nM); D) Volcano plot of mRNA expression changes of all TE Down and rDiff genes in T-ALL samples (n=9) compared to normal thymocytes (n=4). E) Kaplan-Meier analysis showing time to leukemia development (as in FIG. 1B). Wild-type HPCs transduced with NOTCH1-ICN and empty vector (black, n=14), Myb (red, n=4), Ccnd3 T283A (orange, n=5), or shEzh2 (orange, n=10), vavP-Bcl2 (brown, n=4), p53−/− (green, n=3). F) Effect of OmoMYCER activation on survival of leukemic animals; (d=0 represents start of therapy/tamoxifen (TAM) administration). Inset: clearance of GFP expressing murine T-ALL cells from the marrow upon OmomycER activation (Untr: untreated, TAM: tamoxifen). G) Competition experiment (as in FIG. 1C/D) showing the percentage of each starting GFP positive population of murine T-ALL cells partially transduced with the indicated constructs and treated with silvestrol (* indicates p<0.05).
FIG. 13 depicts the relative contribution of MYC and other silvestrol targets in T-ALL. […]

[3] = system: primary human T-ALL samples; assay: Viability / apoptosis induction in primary human T-ALL samples; type: cell-based
Text: as §2

KOPT-K1 xenografts = assay: KOPT-K1 xenograft study; details: for tumor growth: d 0-6, systemic; for toxicity, death, weight loss: treated mice, therapeutic doses
Description: Statistical analysis. All Kaplan-Meier curves were analyzed using the Mantel-Cox test. The significance of xenografted tumor size differences was determined using two-way repeated measures ANOVA tests. RT-PCRs were analyzed with two tailed t-tests.
Xenografts. 5,000,000 KOPT-K1 cells in 30% matrigel (BD 354234) were injected subcutaneously into C.B-17 scid mice. […] Tumor size was measured daily by caliper. P-values were calculated using 2-way repeated measures ANOVA.
Cycloheximide (C7698) and Rapamycin (R8781) were purchased from Sigma.
D) KOPT-K1 xenograft studies.

[4] = system: neuroblastoma cell lines SKNAS, CLBGA, IMR32 and N206; assay: Silvestrol IC50 in neuroblastoma cell lines SKNAS, CLBGA, IMR32 and N206; type: cell-based

Compound | phosphorylation of AKT (T308) [1] | ribosomal S6 phosphorylation / S6 kinase activity [1] | block of cap-dependent versus IRES-dependent translation [2] | target protein levels compared with silvestrol result (JURKAT and KOPT-K1 cells; 24H) | in vitro activity against T-ALL compared with silvestrol ([3]; not shown) | tumor growth (KOPT-K1 xenografts; 0.2 mg/kg, n=8, p<0.001) | pathologic analysis of treated tumors (TUNEL, Ki-67) (KOPT-K1 xenografts; treated KOPT-K1 tumors) | toxicity, death, weight loss (KOPT-K1 xenografts) | ACTIN, TUBULIN and GAPDH protein levels (JURKAT and KOPT-K1 cells) | MYB, CDK6, EZH2 and RUNX1/AML1 protein expression (JURKAT and KOPT-K1 cells) | MYC, NOTCH1, BCL2 and CCND3 protein levels (JURKAT and KOPT-K1 cells) | IC50 ([3]; primary human T-ALL samples in vitro, 48 hours) [nM] | IC50 [4] [nM] | tumor growth (KOPT-K1 xenografts; 0.5 mg/kg, n=7, p<0.001)
(±)-CR-31-B | did not lead to phosphorylation of AKT (T308) | does not affect S6 kinase activity | preferentially block cap-dependent over IRES-dependent translation | same result was confirmed | similar | significant delay in tumor growth | diffuse apoptosis by TUNEL and loss of proliferation by Ki-67 | no severe toxicity, death, or weight loss |  |  |  |  |  | 
COC(=O)[C@H]1[C@@H](O)[C@@]2(O)c3c(OC)cc(O[C@@H]4O[C@@H]([C@H](O)CO)CO[C@H]4OC)cc3O[C@@]2(c2ccc(OC)cc2)[C@@H]1c1ccccc1 [silvestrol] | did not lead to phosphorylation of AKT (T308) | does not affect S6 kinase activity | preferentially block cap-dependent over IRES-dependent translation |  |  |  |  | no severe toxicity, death, or weight loss | not affected | somewhat less decreased | dramatic loss | 3 to 13 | 2 to 20 | significant delay in tumor growth

— US20150219624A1, “METHODS FOR IDENTIFYING ANTI-CANCER COMPOUNDS” (MEMORIAL SLOAN KETTERING CANCER CENTER, priority 2013, published 2015)
